Assay [1] concerns the target T1, VLA-4 (a4b1 integrin) (Homo sapiens, UniProt P05556+P13612).
T1 construct: followed by 10 µl of Ramos cell-derived VLA-4; endogenous in cells; host or cells: Ramos cells (VLA-4 preparation derived from the cells)
As to the kind of experiment: Ramos (VLA-4) / VCAM-1 Cell-Based Screening Assay (cell adhesion). The text has this:
Ramos (VLA-4) / VCAM-1 Cell-Based Screening Assay Protocol
Calcein-AM was purchased from Molecular Probes Inc.
VLA-4 (a4b1 integrin) antagonist activity, defined as ability to compete with cell-surface VLA-4 for binding to immobilized VCAM-1, was quantitated using a Ramos-VCAM-1 cell adhesion assay. Ramos cells bearing cell-surface VLA-4, were labeled with a fluorescent dye (Calcein-AM) and allowed to bind VCAM-1 in the presence or absence of test compounds.
Initially, this entailed coating 96 well plates (Nunc Maxisorp) with recombinant human VCAM-1 (100 ng in 100 µl PBS), sealing each plate and allowing the plates to stand at 4°C for Å18 hr. The VCAM-coated plates were subsequently washed twice with 0.05% Tween-20 in PBS, and then blocked for 1hr (room temperature) with 200 µl of Blocking Buffer (1% BSA/0.02% thimerosal) to reduce non-specific binding. Following the incubation with Blocking Buffer, plates were inverted, blotted and the remaining buffer aspirated. Each plate was then washed with 300 µl PBS, inverted and the remaining PBS aspirated.
Test compounds were dissolved in 100% DMSO and then diluted 1:25 in VCAM Cell Adhesion Assay Buffer (4 mM CaCl2, 4 mM MgCl2 in 50 mM TRIS-HCl, pH 7.5) (final DMSO = 4%). […] 100 µl/well of each dilution was added to the VCAM-coated plates, followed by 100 µl of Ramos cells (200,000 cells/well in 1% BSA/PBS). […] Plates were inverted to remove non-adherent cells, blotted and 300 µl/well PBS added. Plates were again inverted, blotted and the remaining buffer gently aspirated. 100 µl Lysis Buffer (0.1% SDS in 50 mM TRIS-HCl, pH 8.5) was added to each well and agitated for 2 min on a rotary shaking platform.

In assay [2] the target is T1, VLA-4 (a4b1 integrin). Briefly: VLA-4 / VCAM-1 Screening Assay (solid-phase, dual antibody ELISA). The settings on record: Ramos cell-derived VLA-4 binding to immobilized recombinant human VCAM-1, 1 mM MnCl2, 2 hr at 37 °C. The protocol:
VLA-4 / VCAM-1 Screening Assay
VLA-4 antagonist activity, defined as ability to compete for binding to immobilized VCAM-1, was quantitated using a solid-phase, dual antibody ELISA. VLA-4 (a4b1 integrin) bound to VCAM-1 is detected by a complex of anti-integrin b1 antibody: HRP-conjugated anti-mouse IgG: chromogenic substrate (K-Blue). Initially, this entailed coating 96 well plates (Nunc Maxisorp) with recombinant human VCAM-1 (0.4 µg in 100 µl PBS), sealing each plate and then allowing the plates to stand at 4°C for Å18 hr. […] On the day of assay, all plates are washed twice with VCAM Assay Buffer (200 µl/well of 50 mM Tris-HCl, 100 mM NaCl, 1 mM MnCl2, 0.05% Tween 20; pH 7.4). Test compounds are dissolved in 100% DMSO and then diluted 1:20 in VCAM Assay Buffer supplemented with 1mg/mL BSA (i.e., final DMSO = 5%). […] 100 µl per well of each dilution is added to the VCAM-coated plates, followed by 10 µl of Ramos cell-derived VLA-4. These plates are sequentially mixed on a platform shaker for 1 min, incubated for 2 hr at 37 °C, and then washed four times with 200 µl/well VCAM Assay Buffer. 100 µl of mouse anti-human integrin b1 antibody is added to each well (0.6 µg/mL in VCAM Assay Buffer + 1mg/mL BSA) and allowed to incubate for 1 hr at 37°C. At the conclusion of this incubation period, all plates are washed four times with VCAM Assay Buffer (200 µl/well). A corresponding second antibody, HRP-conjugated goat anti-mouse IgG (100 µl per well @ 1:800 dilution in VCAM Assay Buffer + 1mg/mL BSA), is then added to each well, followed by a 1 hr incubation at room temperature and concluded by three washes (200µl/well) with VCAM Assay Buffer. Color development is initiated by addition of 100 µl K-Blue per well (15 min incubation, room temp) and terminated by addition of 100 µl Red Stop Buffer per well. […] Results are calculated as % inhibition of total binding (i.e., VLA-4 + VCAM-1 in the absence of test compound).
Background: ELISA stands for enzyme-linked immunosorbent assay.

[3] abbreviates: Calcein-AM labeled Ramos cells adhering to immobilized recombinant human VCAM-1, 45 min at room temperature, read-out: Ramos IC50.

Where “and” joins values, the source holds several entries; their conditions need not be identical. Identical values can stand only once.

T1 sequence (P13612 34-1032): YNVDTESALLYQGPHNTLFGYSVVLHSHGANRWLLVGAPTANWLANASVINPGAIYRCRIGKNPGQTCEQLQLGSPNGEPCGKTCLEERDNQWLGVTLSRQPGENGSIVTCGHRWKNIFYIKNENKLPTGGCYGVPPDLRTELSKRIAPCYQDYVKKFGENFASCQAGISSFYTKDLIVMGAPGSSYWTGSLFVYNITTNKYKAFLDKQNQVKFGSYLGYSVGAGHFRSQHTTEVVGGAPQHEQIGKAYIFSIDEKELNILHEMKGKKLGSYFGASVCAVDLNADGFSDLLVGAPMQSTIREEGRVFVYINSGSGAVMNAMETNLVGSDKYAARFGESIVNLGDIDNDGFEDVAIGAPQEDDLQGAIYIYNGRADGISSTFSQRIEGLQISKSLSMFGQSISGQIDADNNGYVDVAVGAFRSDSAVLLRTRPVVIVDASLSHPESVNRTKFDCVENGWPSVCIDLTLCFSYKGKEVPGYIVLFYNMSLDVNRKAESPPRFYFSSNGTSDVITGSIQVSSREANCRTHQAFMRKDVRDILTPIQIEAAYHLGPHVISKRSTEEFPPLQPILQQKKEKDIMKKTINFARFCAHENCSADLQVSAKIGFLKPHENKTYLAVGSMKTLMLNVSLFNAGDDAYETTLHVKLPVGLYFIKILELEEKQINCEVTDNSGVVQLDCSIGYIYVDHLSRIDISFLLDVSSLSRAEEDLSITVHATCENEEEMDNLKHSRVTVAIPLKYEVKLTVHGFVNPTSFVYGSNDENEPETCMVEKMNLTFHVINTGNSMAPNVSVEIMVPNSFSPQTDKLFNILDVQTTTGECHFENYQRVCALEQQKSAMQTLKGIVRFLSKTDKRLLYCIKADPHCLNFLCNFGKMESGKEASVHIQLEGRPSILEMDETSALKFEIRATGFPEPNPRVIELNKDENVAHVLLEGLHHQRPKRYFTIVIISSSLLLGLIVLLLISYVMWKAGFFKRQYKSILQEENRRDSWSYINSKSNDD
T1 sequence (P05556 21-798): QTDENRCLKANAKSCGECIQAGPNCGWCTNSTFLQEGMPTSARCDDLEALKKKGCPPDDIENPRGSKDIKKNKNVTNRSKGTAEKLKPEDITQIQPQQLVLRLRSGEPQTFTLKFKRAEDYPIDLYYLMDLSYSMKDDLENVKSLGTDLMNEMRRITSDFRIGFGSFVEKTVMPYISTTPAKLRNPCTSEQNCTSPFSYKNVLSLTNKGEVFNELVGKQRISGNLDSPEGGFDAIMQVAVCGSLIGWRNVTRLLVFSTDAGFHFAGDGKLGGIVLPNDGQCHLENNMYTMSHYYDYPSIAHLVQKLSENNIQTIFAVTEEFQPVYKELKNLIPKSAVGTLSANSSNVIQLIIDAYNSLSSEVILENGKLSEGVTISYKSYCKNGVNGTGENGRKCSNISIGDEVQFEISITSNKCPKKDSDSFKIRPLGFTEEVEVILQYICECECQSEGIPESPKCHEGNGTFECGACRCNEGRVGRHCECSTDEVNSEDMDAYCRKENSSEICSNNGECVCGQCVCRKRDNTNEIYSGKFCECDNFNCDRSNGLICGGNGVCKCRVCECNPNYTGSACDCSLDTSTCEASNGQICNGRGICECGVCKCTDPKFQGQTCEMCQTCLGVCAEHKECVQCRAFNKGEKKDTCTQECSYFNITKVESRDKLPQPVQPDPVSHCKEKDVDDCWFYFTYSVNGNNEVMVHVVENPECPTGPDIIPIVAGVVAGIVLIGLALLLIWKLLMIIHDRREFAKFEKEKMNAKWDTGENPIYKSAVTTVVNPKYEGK

In the case of “4-[(2S,4R)-3-Acetyl-2-phenyl-4-(3-pyridinylmethyl)-5-oxo-1-imidazolinyl]-N-[(2-chloro-6-methylphenyl)carbonyl]-L-phenylalanine and 4-[(2R,4R)-3-acetyl-2-phenyl-4-(3-pyridinylmethyl)-5-oxo-1-imidazolinyl]-N-[(2-chloro-6-methylphenyl)carbonyl]-L-phenylalanine [Example 171]”, the half-maximal inhibitory concentration (IC50) in assay [1] (setting [3]) is 13.5 nM.
With `C[S+]([O-])c1ccccc1C(=O)N[C@@H](Cc1ccc(NC(=O)c2c(Cl)cccc2Cl)cc1)C(=O)O` (single isomer, unassigned) [Example 30, 4-[[(2,6-dichlorophenyl)carbonyl]amino]-N-[[2-(methylsulfinyl)phenyl]carbonyl]-L-phenylalanine], the IC50 in assay [2] (read-out: ELISA IC50) is 2 nM and 1.6 nM.
Consider `CC(=O)N1C(Cc2ccccc2)C(=O)N(c2ccc(C[C@H](NC(=O)c3c(C)cccc3Cl)C(=O)O)cc2)C1c1ccccc1` (single isomer, unassigned) [Example 170], for which, in assay [1] (setting [3]), the IC50 was 33.5 nM.
As for `Cc1cccc(Cl)c1C(=O)N[C@@H](Cc1ccc(NC(=O)c2c(Cl)cccc2Cl)cc1)C(=O)O` [Example 13], the IC50 was 0.33 nM in assay [2] (read-out: ELISA IC50) and 15 nM in assay [1] (setting [3]).
On to `O=C(Nc1ccc(C[C@H](NC(=O)c2cccc3ccccc23)C(=O)O)cc1)c1c(Cl)cccc1Cl` [Example 15], for which the IC50 in assay [1] (setting [3]) is 2600 nM.
On the same count and under the same terms, then `O=C(Nc1ccc(C[C@H](NC(=O)c2c(F)cccc2C(F)(F)F)C(=O)O)cc1)c1c(Cl)cccc1Cl` [Example 16], with 85 nM.
As for `CC(C)c1cccc(C(C)C)c1C(=O)N[C@@H](Cc1ccc(NC(=O)c2c(Cl)cccc2Cl)cc1)C(=O)O` [Example 18], the IC50 in assay [2] (read-out: ELISA IC50) stood at 11 nM.
In the case of `COc1ccc(C(=O)N[C@@H](Cc2ccc(NC(=O)c3c(Cl)cccc3Cl)cc2)C(=O)O)c(Cl)c1` [Example 19], the IC50 in assay [1] (setting [3]) was 351 nM.
Turning to `O=C(N[C@@H](Cc1ccc(NC(=O)c2c(Cl)cccc2Cl)cc1)C(=O)O)c1cccc(Cl)c1Cl` [Example 20], the IC50 in assay [2] (read-out: ELISA IC50) was 2.2 nM; in assay [1] (setting [3]) it was 1630 nM.
`Cc1cccc(C(=O)N[C@@H](Cc2ccc(NC(=O)c3c(Cl)cccc3Cl)cc2)C(=O)O)c1Cl` [Example 21]: the values for the IC50 in assay [2] (read-out: ELISA IC50) and in assay [1] (setting [3]) were 1.4 nM and 1270 nM, respectively.
For `O=C(N[C@@H](Cc1ccc(NC(=O)c2c(Cl)cccc2Cl)cc1)C(=O)O)c1ccc(Br)cc1Cl` [Example 22] the same measures were 1.6 nM and 1320 nM.
For the compound `COc1ccc(Br)c(C(=O)N[C@@H](Cc2ccc(NC(=O)c3c(Cl)cccc3Cl)cc2)C(=O)O)c1` [Example 24], in assay [2] (read-out: ELISA IC50), the IC50 is 0.25 nM.
Still for that read-out and setting: for `COc1ccccc1C(=O)N[C@@H](Cc1ccc(NC(=O)c2c(Cl)cccc2Cl)cc1)C(=O)O` [Example 26] the value was 8.6 nM; for `CNc1ccccc1C(=O)N[C@@H](Cc1ccc(NC(=O)c2c(Cl)cccc2Cl)cc1)C(=O)O` [Example 27], 1.9 nM; for `CS(=O)(=O)c1ccccc1C(=O)N[C@@H](Cc1ccc(NC(=O)c2c(Cl)cccc2Cl)cc1)C(=O)O` [Example 28], 3.3 nM.
Regarding `Cc1cccc(C(C)C)c1C(=O)N[C@@H](Cc1ccc(NC(=O)c2c(Cl)cccc2Cl)cc1)C(=O)O` [Example 90], the IC50 in assay [2] (read-out: ELISA IC50) is 1.2 nM; in assay [1] (setting [3]), 23 nM.
For `CS(=O)(=O)c1ccc(C(=O)N[C@@H](Cc2ccc(NC(=O)c3c(Cl)cccc3Cl)cc2)C(=O)O)c(Cl)c1` [Example 94] the same measures were 0.25 nM and 9.5 nM.
Taken in the same sequence, the figures for `O=C(N[C@@H](Cc1ccc(NC(=O)c2c(Cl)cccc2Cl)cc1)C(=O)O)c1ccc(O)cc1Cl` [Example 95] were 0.46 nM and 33 nM.
`COC(=O)[C@H](Cc1ccc(N2C(=O)[C@@H](C(C)C)N(C)C2=O)cc1)NC(=O)c1c(C)cccc1Cl` [Example 96, N-(2-Chloro-6-methylbenzoyl)-[(R)-2,5-dioxo-3-methyl-4-(1-methylethyl)-1-imidazolininyl]-L-phenylalanine methyl ester]: the IC50 in assay [2] (read-out: ELISA IC50) was found to be 0.47 nM.
The same measure, in the same setting: for `CC(=O)N1[C@H](CC(C)C)C(=O)N(c2ccc(C[C@H](NC(=O)c3c(C)cccc3Cl)C(=O)O)cc2)[C@@H]1C(C)(C)C` [Example 102] the value was 41 nM.
For the compound `Cc1cccc(Cl)c1C(=O)N[C@@H](Cc1ccc(NC(=O)c2c(C)ccnc2C)cc1)C(=O)O` [Example 107], the IC50 in assay [2] (ELISA IC50 nM) amounted to 0.79 nM; in assay [1] it was 20 nM.
`Cc1cccc(Cl)c1C(=O)N[C@@H](Cc1ccc(NC(=O)c2c(F)cccc2F)cc1)C(=O)O` [Example 114, N-[1-(2-Chloro-6-methylphenyl)carbonyl]-4-[[(2,6-difluorophenyl)carbonyl]amino]-L-phenylalanine]: the IC50 in assay [2] (read-out: ELISA IC50) is 1.14 nM.
For the compound `Cc1cccc(Cl)c1C(=O)N[C@@H](Cc1ccc(NC(=O)c2c(F)c(F)c(F)c(F)c2F)cc1)C(=O)O` [Example 115, N-[1-(2-Chloro-6-methylphenyl)carbonyl]-4-[[(2,3,4,5,6-pentafluorophenyl)carbonyl]amino]-L-phenylalanine], the values for the IC50 in assay [2] (read-out: ELISA IC50) and in assay [1] (setting [3]) were 4.5 nM and 678 nM, respectively.
For `Nc1ccc(C(=O)N[C@@H](Cc2ccc(NC(=O)c3c(Cl)cccc3Cl)cc2)C(=O)O)c(Cl)c1` [Example 124, N-[(4-amino-2-chlorophenyl)carbonyl]-4-[[(2,6-dichlorophenyl)carbonyl]amino]-L-phenylalanine] the same measures were 0.63 nM and 985 nM.
In the case of `Cc1cccc(Cl)c1C(=O)N[C@@H](Cc1ccc(N2C(=O)c3ccc(C#N)cc3C2=O)cc1)C(=O)O` [Example 125], the IC50 in assay [2] (read-out: ELISA IC50 nM) is 1.7 nM.
Consider `Cc1cc(C(F)(F)F)c(C(=O)Nc2ccc(C[C@H](NC(=O)c3c(C)cccc3Cl)C(=O)O)cc2)c(C)n1` [Example 150], for which the midpoint of inhibition in assay [1], the IC50, lay at 47 nM.
As to `Cc1cc(C(F)(F)F)c(C(=O)N[C@@H](Cc2ccc(NC(=O)c3c(Cl)cccc3Cl)cc2)C(=O)O)c(C)n1` [Example 156], in assay [1] (setting [3]), the IC50 was 114 nM.
Same read-out and setting: then `Cc1cccc(Cl)c1C(=O)Nc1ccc(C[C@H](NC(=O)c2c(Cl)cccc2Cl)C(=O)O)cc1` [Example 169, N-[(2,6-Dichlorophenyl)carbonyl]-4-[[(2-chloro-6-methylphenyl)carbonyl]amino]-L-phenylalanine], with 30 nM.

Broadly, the IC50 is the concentration that gives 50% inhibition.

Source of the values: patent EP1005445B1, “N-ALKANOYLPHENYLALANINE DERIVATIVES” (F. HOFFMANN-LA ROCHE AG, priority 1997, dated 1999).
